# Columns and labels:
# Corn [1] = assay: Greenhouse corn, foliar GA3 before a simulated freeze event (−2° C. for 8 hours), evaluated 8 days after freezing; format: in vivo
# Experimental: Corn seeds were planted in 18 cell flats filled with Sunshine 900 mix. Osmocote Plus (cal mag) 16-8-12 and Gypsum ([…]) were added (standard medium). The plants were watered and fertilized with 100 ppm of a commercially available 15-5-15 mixture plus 100 ppm calcium and 100 ppm magnesium, pH 6.5, as necessary and grown in the greenhouse. After the corn grew for 7 days, the plants received a foliar application of 1.8 ml of 120 mg/liter GA3 plus 0.05% non-ionic surfactant per plant. Sixteen hours later, the GA3-treated and untreated control plants were moved to a cold room with temperature at −2° C. for 8 hours to simulate a freeze event. Plants were then moved to the greenhouse (25° C.). The plant height, number of injured leaves, and damaged leaf area were evaluated at 8 days after freezing.
# Corn [2] = assay: Corn growth at 8° C. for 7 d after foliar GA3 application at V2; format: in vivo; settings: 120 mg/liter (0.2 mg/plant: 6.9 grams of GA3/acre)
# Experimental: Corn seeds were planted in 2 quart pots filled with standard medium and grown in the greenhouse. After the corn grew for 10 days at 24° C., it was at the V2 growth stage. The 10d post-sowing plants received a foliar application of 1.8 ml of 120 mg/liter GA3 plus 0.05% of a non-ionic surfactant. Immediately after spraying, both the GA3-treated and untreated control plants were moved to a growth chamber set at 8° C. with a 12:12 photoperiod. The height of the plants was measured one week after treatment.
# [3] = 120 mg/liter GA3, 1.8 ml per plant, 16 h before −2° C. for 8 h, 8 days after freezing
# [4] = pre-frost GA3 treatment, 120 mg/liter
smiles,measurement,setting,value
"C=C1C[C@]23C[C@@]1(O)CC[C@H]2[C@@]12C=C[C@H](O)[C@@](C)(C(=O)O1)[C@H]2[C@@H]3C(=O)O [GA3, gibberellic acid]",Damaged leaf area,Corn [1]; [3],12.4%
same,Number of injured leaf,Corn [1]; [3],2.6
same,Plant height,Corn [1]; [3],59.7 cm
same,Effect on number of injured leaves or damaged leaf area,Corn [1]; [4],did not reduce the number of injured leaves or damaged leaf area
same,Recovery from frost damage,Corn [1]; [4],did help the corn recover from the frost damage
same,Growth rate,Corn [2]; 7 d at 8° C.,0.58 cm/day
same,Height at 7 d,"Corn [2]; 7 d at 8° C., 12:12 photoperiod",28.0 cm
same,Height at Application,"Corn [2]; baseline at application, V2",23.9 cm
